Experimental data as given in ChEMBL document CHEMBL1201862, “PubChem BioAssay data set” (2004).
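Following 48 hours of exposure in 96-well plates, responses at five concentrations were used to interpolate endpoints linearly. At the GI50, growth is halved.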 Active and inactive are the calls of the source. Cut-off read from the data, not from the text of the source: active = GI50 up to about 1.1 µM and inactive = higher.

Tests used:
Experiment in all cases: growth of human tumour cells (NCI), 48 h
EKVX = test system: EKVX
HCC 2998 = test system: HCC 2998
HCT-15 = test system: HCT-15
HL-60 = test system: HL-60
HOP-62 = test system: HOP-62
IGROV-1 = test system: IGROV-1
LOX IMVI = test system: LOX IMVI
M14 = test system: M14
NCI-H23 = test system: NCI-H23
NCI-H460 = test system: NCI-H460
OVCAR-3 = test system: OVCAR-3
OVCAR-5 = test system: OVCAR-5
OVCAR-8 = test system: OVCAR-8
SF-268 = test system: SF-268
SK-MEL-2 = test system: SK-MEL-2
SNB-19 = test system: SNB-19
UO-31 = test system: UO-31
HOP-92 = test system: HOP-92

SMILES | GI50 (EKVX) | GI50 (HCC 2998) | GI50 (HCT-15) | GI50 (HL-60) | GI50 (HOP-62) | GI50 (IGROV-1) | GI50 (LOX IMVI) | GI50 (M14) | GI50 (NCI-H23) | GI50 (NCI-H460) | GI50 (OVCAR-3) | GI50 (OVCAR-5) | GI50 (OVCAR-8) | GI50 (SF-268) | GI50 (SK-MEL-2) | GI50 (SNB-19) | GI50 (UO-31) | GI50 (HOP-92)
NC(=O)N/N=C(\CCC(=O)N(Cc1ccccc1)Cc1ccccc1)CC(=O)c1ccc(F)cc1 | > 100 µM (inactive) | > 100 µM (inactive) | > 100 µM | > 100 µM (inactive) | > 100 µM (inactive) | > 100 µM (inactive) | > 100 µM (inactive) | > 100 µM (inactive) | > 100 µM (inactive) | > 100 µM (inactive) | > 100 µM (inactive) | > 100 µM (inactive) | > 100 µM (inactive) | > 100 µM (inactive) | > 100 µM (inactive) | > 100 µM (inactive) | > 100 µM (inactive) | –
O=C(CSc1nnc(-c2ccc(/N=C\c3ccc(Cl)cc3)cc2)o1)Nc1ccccc1[N+](=O)[O-] | > 100 µM (inactive) | – | > 100 µM | > 100 µM (inactive) | > 100 µM (inactive) | – | > 100 µM (inactive) | > 100 µM (inactive) | > 100 µM (inactive) | > 100 µM (inactive) | – | – | > 100 µM (inactive) | > 100 µM (inactive) | > 100 µM (inactive) | > 100 µM (inactive) | > 100 µM (inactive) | –
CCOC(=O)N1CCC(=O)C(CNC23CC4CC(CC(C4)C2)C3)C1 (stereo not drawn) | > 100 µM (inactive) | – | – | 22.2 µM (inactive) | > 100 µM (inactive) | – | 19 µM (inactive) | – | 61.4 µM (inactive) | > 100 µM (inactive) | – | > 100 µM (inactive) | 21.2 µM (inactive) | > 100 µM (inactive) | > 100 µM (inactive) | > 100 µM (inactive) | 51.5 µM (inactive) | 20.7 µM (inactive)
Cc1nn2c3c(nnc2c1C#N)C(=O)NN=C(N)S3 | > 100 µM (inactive) | – | – | > 100 µM (inactive) | > 100 µM (inactive) | > 100 µM (inactive) | – | > 100 µM (inactive) | > 100 µM (inactive) | – | > 100 µM (inactive) | > 100 µM (inactive) | > 100 µM (inactive) | > 100 µM (inactive) | – | > 100 µM (inactive) | > 100 µM (inactive) | > 100 µM (inactive)
O=c1[nH]cc(COCCCO)c(=O)[nH]1 | > 100 µM (inactive) | – | > 100 µM | > 100 µM (inactive) | > 100 µM (inactive) | > 100 µM (inactive) | > 100 µM (inactive) | > 100 µM (inactive) | 53.5 µM (inactive) | > 100 µM (inactive) | > 100 µM (inactive) | > 100 µM (inactive) | > 100 µM (inactive) | > 100 µM (inactive) | > 100 µM (inactive) | > 100 µM (inactive) | > 100 µM (inactive) | > 100 µM (inactive)
COC(=O)C(C(=O)c1ccccc1)C(C(=O)C(=O)Nc1ccc(OC)cc1OC)C(=O)C(=O)c1ccc(C)cc1 (stereo not drawn) | > 100 µM (inactive) | > 100 µM (inactive) | > 100 µM | > 100 µM (inactive) | > 100 µM (inactive) | > 100 µM (inactive) | > 100 µM (inactive) | > 100 µM (inactive) | > 100 µM (inactive) | > 100 µM (inactive) | > 100 µM (inactive) | > 100 µM (inactive) | > 100 µM (inactive) | > 100 µM (inactive) | > 100 µM (inactive) | > 100 µM (inactive) | > 100 µM (inactive) | –
CC(=O)OC(/C=C1/C=CC(=O)O1)COC(=O)c1ccccc1 (stereo not drawn) [ACETYLMELODORINOL] | > 31.2 µM (inactive) | > 31.2 µM (inactive) | – | > 31.2 µM (inactive) | > 31.2 µM (inactive) | > 31.2 µM (inactive) | > 31.2 µM (inactive) | > 31.2 µM (inactive) | > 31.2 µM (inactive) | > 31.2 µM (inactive) | > 31.2 µM (inactive) | > 31.2 µM (inactive) | > 31.2 µM (inactive) | > 31.2 µM (inactive) | – | > 31.2 µM (inactive) | > 31.2 µM (inactive) | > 31.2 µM (inactive)
C1=C(c2ccccc2)CN(c2ccccc2)OC1 | 86.9 µM (inactive) | > 100 µM (inactive) | 77.4 µM | 54.8 µM (inactive) | > 100 µM (inactive) | > 100 µM (inactive) | > 100 µM (inactive) | 83.8 µM (inactive) | 89.7 µM (inactive) | > 100 µM (inactive) | > 100 µM (inactive) | 26.8 µM (inactive) | – | 79.3 µM (inactive) | 50.6 µM (inactive) | > 100 µM (inactive) | 32.2 µM (inactive) | –
CC1CC2C(=O)N(c3ccccc3)C(=O)C2c2c1c1ccccc1n2Cc1ccccc1 (stereo not drawn) | > 100 µM (inactive) | – | 35.1 µM | 10.5 µM (inactive) | > 100 µM (inactive) | > 100 µM (inactive) | > 100 µM (inactive) | > 100 µM (inactive) | – | > 100 µM (inactive) | > 100 µM (inactive) | > 100 µM (inactive) | > 100 µM (inactive) | > 100 µM (inactive) | > 100 µM (inactive) | – | > 100 µM (inactive) | 9.84 µM (inactive)
CN(C)C(=S)/N=c1\ss/c(=N\c2ccccc2)n1-c1ccccc1 | 37.3 µM (inactive) | 18.7 µM (inactive) | 23.2 µM | 24.6 µM (inactive) | 27.2 µM (inactive) | 25.1 µM (inactive) | 17.1 µM (inactive) | 14.7 µM (inactive) | 25.8 µM (inactive) | – | 13.7 µM (inactive) | > 100 µM (inactive) | 19.2 µM (inactive) | 21.6 µM (inactive) | 29.5 µM (inactive) | – | 32.9 µM (inactive) | 12.5 µM (inactive)
FC(F)(F)c1nc(-c2ccccc2Cl)[nH]c1C(F)(F)F | 0.56 µM (active) | – | 0.875 µM | 0.406 µM (active) | 0.394 µM (active) | 1.15 µM (inactive) | 0.459 µM (active) | 1.12 µM (inactive) | 0.687 µM (active) | 0.859 µM (active) | 0.223 µM (active) | 0.746 µM (active) | 1.11 µM (active) | 1.23 µM (inactive) | 0.501 µM (active) | 0.571 µM (active) | 0.675 µM (active) | 0.408 µM (active)
O=C(O)CSc1nnc(-c2ccc(O)cc2)[nH]1 | > 100 µM (inactive) | > 100 µM (inactive) | > 100 µM | > 100 µM (inactive) | > 100 µM (inactive) | > 100 µM (inactive) | – | > 100 µM (inactive) | > 100 µM (inactive) | > 100 µM (inactive) | > 100 µM (inactive) | > 100 µM (inactive) | > 100 µM (inactive) | > 100 µM (inactive) | > 100 µM (inactive) | > 100 µM (inactive) | > 100 µM (inactive) | > 100 µM (inactive)
CCOC(=O)/C(Br)=C1\OC(=O)c2ccccc2-c2ccccc21 | > 100 µM (inactive) | 49.2 µM (inactive) | 48.4 µM | 13.3 µM (inactive) | 24.2 µM (inactive) | 63.5 µM (inactive) | 36.8 µM (inactive) | 40.4 µM (inactive) | 57.8 µM (inactive) | – | 37.4 µM (inactive) | > 100 µM (inactive) | 49.8 µM (inactive) | 43.8 µM (inactive) | 64 µM (inactive) | – | 38.7 µM (inactive) | 24.3 µM (inactive)
